Data on eight compounds can be found in US20060148730A1, “Method of treating tuberculosis” (priority 2003, published 2006).

The test system of data set [1] is VERO cells. Briefly: Cytotoxicity against VERO cells (MTS, 72 hours). The conditions noted are these: for IC50: Chlorocebus sabaeus, Vero; for in vitro toxicity / cytotoxicity in words: result in words.
In data set [2] the test system is M. tuberculosis H37Rv. Kind of data set: MIC vs. M. tuberculosis H37Rv, microplate Alamar Blue assay (MABA). The data set is classed as cell-based. The conditions noted are these: for anti-TB activity / MIC in words: result in words; for enhancement in potency of macrolide over counterpart ketolide: MIC ratio ketolide/macrolide. (In general: Resazurin is reduced to fluorescent resorufin, in cell work by metabolically active cells.)

Data set [3] deals with VERO cells.
Data set [4] can be described thus: Overt toxicity in mice, escalating 5-day dosing cycles. The data set is classed as in vivo, Balb/C mice. As to conditions: once daily, 5-day cycles, sequentially 200, 300, 400, 500 mg/kg. The protocol: Prior to assessing in vivo efficacy, RU66252 and RU69874 were administered to pairs of female Balb/C mice once daily for 5-day cycles, and observed for overt signs of toxicity (e.g., weight loss, ruffled fur, and huddling), after which the mice were rested for 1 or 2 days. Then the dosage was increased for another 5-day cycle. Overall, the same mice received sequentially for 5 days: 200, 300, 400, and 500 mg/kg.

The subject of a further data set is M. tuberculosis Erdman. The format is in vivo, BALB/c mice.
For data set [5], the system named is J774.1 macrophage cell line. Kind of data set: Cytotoxicity against J774.1 macrophage cell line. The format is cell-based, murine. As to conditions: Mus musculus.
The subject of a further data set is M. tuberculosis. As to conditions: literature (Luna-Herrera 1995; Truffot-Pernot 1995); cited from earlier work.
The test system of data set [6] is M. tuberculosis H37Rv. The conditions noted are these: cited from earlier work.
[7] abbreviates: Mycobacterium tuberculosis, H37RV, Table 1a, 11,12-carbamate derivatives, anti-TB activity, read-out: MIC.

In brackets after ≈: the same amount, converted by molar mass. Entries after “also recorded” stand apart in the source; their conditions may differ. Like-named read-outs stand apart in the source and are kept apart here.

With `CCCCCCCCCCN1CCCC(O/N=C2\[C@H](C)C[C@@](C)(OC)[C@H](O[C@@H]3O[C@H](C)C[C@H](N(C)C)[C@H]3O)[C@@H](C)C(=O)[C@@H](C)C(=O)O[C@H](CC)[C@@](C)(O)[C@H](O)[C@H]2C)C1` (some centres unmarked) [RU60887], in the data set on VERO cells [1], the “selectivity index (SI), VERO cells” value is on record as 221. Also, in the data set on M. tuberculosis H37Rv [2], the “anti-TB activity / MIC in words” value was “most potent of the tested 9-oxime compounds; also recorded: very low”. For the same compound, in the data set on VERO cells [3], the “in vitro toxicity / cytotoxicity in words” value is recorded as “comparable to clarithromycin”.

For the compound `CC[C@H]1OC(=O)[C@H](C)C(OC2CC(C)(OC)[C@@H](O)[C@H](C)O2)[C@H](C)[C@@H](O[C@@H]2O[C@H](C)C[C@H](N(C)C)[C@H]2O)[C@](C)(OC)C[C@@H](C)C(=O)[C@H](C)[C@H]2N(NCCCc3ccnc4ccccc34)C(=O)O[C@]12C` (some centres unmarked) [RU66252], the IC50 in the data set with VERO cells [1] (read-out: Vero IC50) was found to be 24.9 µM; in the data set with VERO cells [1] (read-out: toxicity based on VERO cells) it was 25 µM; in data set [5] (J774.1, Table 1a, toxicity, read-out: J774 IC50) it was 16.1 µM. The “in vitro toxicity / cytotoxicity in words” value in the data set on VERO cells [1] is on record as “comparable to clarithromycin”. In the data set with M. tuberculosis H37Rv [2], the “enhancement in potency of macrolide over counterpart ketolide” value was 16 fold. Further, the MIC is 0.25 µM (≈ 0.239 µg/mL) with M. tuberculosis H37Rv [2] (setting [7]); 9 µM (≈ 8.61 µg/mL) in the data set with M. tuberculosis H37Rv [2] (Mycobacterium tuberculosis, H37RV, Table 3, parallel-synthesis carbazate library products, SPE purified, read-out: MIC); about 9 µM (≈ 8.61 µg/mL) in the data set on M. tuberculosis H37Rv [2] (Mycobacterium tuberculosis, H37RV, follow-up assays, read-out: MIC vs. M. tuberculosis in follow-up assays); 0.25 µM (≈ 0.239 µg/mL) in the data set on M. tuberculosis H37Rv [2] (Mycobacterium tuberculosis, H37RV, read-out: minimum inhibitory concentration (MIC) against M. tuberculosis). Besides, the “anti-TB activity / MIC in words” value in the data set with M. tuberculosis H37Rv [2] was “very low”. Moreover, the “signs of overt toxicity (weight loss, ruffled fur, huddling)” value in data set [4] is “No signs of overt toxicity”. Moreover, the “activity against M. tuberculosis in the acute phase of infection” value in the data set with M. tuberculosis Erdman ([…], 100 and 200 mg/kg qd, untreated controls abnormally low) was “dose-dependent activity”. The “colonies on 10-2 dilution plates of lung homogenates” value with M. tuberculosis Erdman (treated mouse lung homogenates) is given as “no colonies”.

On to `CC[C@H]1OC(=O)[C@H](C)[C@@H](O[C@H]2C[C@@](C)(OC)[C@@H](O)[C@H](C)O2)[C@H](C)[C@@H](O[C@@H]2O[C@H](C)C[C@H](N(C)C)[C@H]2O)[C@](C)(OC)C[C@@H](C)C(=O)[C@H](C)[C@H]2N(CCCCn3cnc(-c4cccnc4)c3)C(=O)O[C@]12C` [RU69874], for which the “in vitro toxicity / cytotoxicity in words” value with VERO cells [1] is given as “comparable to clarithromycin”. For the same compound, in the data set with M. tuberculosis H37Rv [2], the “anti-TB activity / MIC in words” value is “very low”. For the same compound, in data set [4], the “signs of overt toxicity (weight loss, ruffled fur, huddling)” value is listed as “No signs of overt toxicity”.

For `CC[C@H]1OC(=O)[C@H](C)C(=O)[C@H](C)[C@@H](O[C@@H]2O[C@H](C)C[C@H](N(C)C)[C@H]2O)[C@](C)(OC)C[C@@H](C)C(=O)[C@H](C)[C@H]2N(CCCCn3cnc(-c4cccnc4)c3)C(=O)O[C@]12C` [Telithromycin, reference compound], the MIC with M. tuberculosis H37Rv [2] (setting [7]) was determined as 48 µM (≈ 39 µg/mL). In addition, the “anti-TB activity / MIC in words” value in the data set on M. tuberculosis H37Rv [2] is “less active than clarithromycin”. Also, the IC50 came to 102 µM in data set [5] (J774.1, read-out: J774 IC50) and 102 µM in data set [5] (J774.1, read-out: toxicity based on J774 cells).

As for `CC[C@H]1OC(=O)[C@H](C)[C@@H](O[C@H]2C[C@@](C)(OC)[C@@H](O)[C@H](C)O2)[C@H](C)[C@@H](O[C@@H]2O[C@H](C)C[C@H](N(C)C)[C@H]2O)[C@](C)(OC)C[C@@H](C)C(=O)[C@H](C)[C@@H](O)[C@]1(C)O` [Clarithromycin, reference compound], the “enhancement in potency of macrolide over counterpart ketolide” value in the data set with M. tuberculosis H37Rv [2] worked out at 16 fold. For the same compound, the MIC with M. tuberculosis H37Rv [2] (Table 2a, 11,12-diols, anti-TB activity, read-out: MIC) worked out at 8 µM (≈ 5.98 µg/mL). The “activity in mouse models” value in the data set on M. tuberculosis is “marginal and nil”.

Regarding `NNC(=O)c1ccncc1` [Isoniazid], the “expected MIC range of positive quality control compound” value in the data set on M. tuberculosis H37Rv [6] was 0.025 to 0.1 µg/mL.

On to `CC[C@H]1OC(=O)[C@@](C)(F)C(=O)[C@H](C)[C@@H](O[C@@H]2O[C@H](C)C[C@H](N(C)C)[C@H]2O)[C@](C)(OCC#Cc2cc(-c3cnc4ccccc4c3)no2)C[C@@H](C)C(=O)[C@H](C)[C@H]2NC(=O)O[C@@]21C` [Compound A323348], for which the “in vitro toxicity / cytotoxicity in words” value in the data set on VERO cells [1] is “comparable to clarithromycin”. Also, the MIC is reported as 0.38 µM (≈ 0.323 µg/mL) in the data set with M. tuberculosis H37Rv [2] (Table 1a, 11,12-carbamate derivatives, anti-TB activity, read-out: MIC) and 0.38 µM (≈ 0.323 µg/mL) in the data set on M. tuberculosis H37Rv [2] (read-out: minimum inhibitory concentration (MIC) against M. tuberculosis). Also, in the data set with M. tuberculosis H37Rv [2], the “anti-TB activity / MIC in words” value is recorded as “very low”.

For `CC[C@H]1OC(=O)[C@H](C)[C@@H](O[C@H]2CC(C)(OC)[C@@H](O)[C@H](C)O2)[C@H](C)[C@@H](O[C@@H]2O[C@H](C)C[C@H](N(C)C)[C@H]2O)[C@](C)(OC)C[C@@H](C)C(=O)[C@H](C)[C@H]2N(NCc3cccn3CCC#N)C(=O)O[C@]12C` (some centres unmarked) [E10′], the MIC in the data set with M. tuberculosis H37Rv [2] (Table 3, parallel-synthesis carbazate library products, SPE purified, read-out: MIC) is 20 µM (≈ 18.4 µg/mL).
